Data from patent US10799457B2, “Exosomal compositions and methods for the treatment of disease” (priority 2010, dated 2020).

Assays:
[1] = test system: C57BL/6 mice; assay: Experimental autoimmune encephalitis (EAE), MOG 35-55 induced; format: in vivo; settings: intranasal daily from day 4, 1.5 nmoles; scale 0-5
Procedure: EAE was induced in six-week-old female C57BL/6 mice using a procedure described previously (67). Briefly, mice were primed subcutaneously in the flanks with 150 μg of Myelin Oligodendrocyte Glycoprotein (MOG) 35-55 peptide (Biosynthesis, Lewisville, Tex.) per animal. The peptide was emulsified in complete Freund's adjuvant (CFA) containing 1 mg/ml of Mycobacterium tuberculosis H37RA (Difco, Detroit, Mich.). Two days later the mice were injected IP with 500 ng of Pertussis toxin (Alexis Corp., San Diego, Calif.) in 100 μl of PBS. Mice (n=10) were treated intranasally with daily doses of 1.5 nmoles of Exo-cur, or with Cur- or Exo-controls in PBS or PBS-control for 26 consecutive days. […] The mice were scored as follows: 0, no detectable signs of EAE; 1, complete limp tail; 2, limp tail and hindlimb weakness; 3, severe hindlimb weakness; 4, complete bilateral hindlimb paralysis; 5, total paralysis of both forelimbs and hindlimbs or death.
Relative quantification of select mRNA was performed using a CFX96 Realtime System and SsoFast™ Evagreen® supermixture (Bio-Rad Laboratories, Hercules, Calif.) according to the manufacturer's instructions. […] Fold changes in mRNA expression between treatments and controls were determined the ΔCT method (91). Fluorescence threshold cycle (Ct) values were calculated using SDS 700 System Software (Bio-Rad Laboratories, Hercules, Calif.). […]

[2] = test system: C57BL/6j mice; assay: LPS mouse septic shock model; format: in vivo; settings: 16 hours after IP injection of LPS, 4 mg/kg IP
Procedure: Mouse mortality was monitored over a period of 4 days. The sera were collected 16 hr after LPS injection and used to determine IL-6 and TNF-α levels using ELISAs as before. At day 1 after LPS challenge, 3 mice from each treated group were sacrificed and the leukocytes in the lungs were isolated using a method described previously (21). The percentage of CD11b^+Gr-1^+ cells in the lung was determined by FACS analysis.
Briefly, to monitor mice mortality, a LD50 (median lethal dose) of LPS was determined first. LPS (5 mg/ml, Sigma, St. Louis, Mo.) was then prepared with sterile H2O and varied amounts of LPS were IP injected into the same batch of commercially supplied C57BL/6j mice. Each group contained 6 mice. […] Exosomes and PBS injections served as controls.

[3] = In vitro stability assay in PBS (pH 7.4) at 37° C.; format: physicochemical; settings: 150 min
Procedure: The fold reduction of the concentration at each time was determined by comparison to the beginning value. The experiments were repeated three times for each time point (n=3).

[4] = test system: Gr1^+ cells; assay: Gr1+ cell apoptosis, Annexin V FACS analysis; format: cell-based, Mouse; settings: 5 μM and 10 μM, 8 hours, Annexin V-FITC FACS
Procedure: For cell surface marker staining, isolated cells were blocked at 4° C. for 5 min with 10 μg/ml mouse Fc block (BD Biosciences, San Jose, Calif.) and then reacted with various fluorochrome-labeled antibodies including appropriate isotype controls for 30 min at 4° C. After washing twice, cells were fixed and analyzed using a FACSCalibur flow cytometer (Becton Dickinson Biosciences, San Jose, Calif.). Data were analyzed using FlowJo software (Tree Star, Inc., Ashland, Oreg.). The following antibodies were used for immunostaining: FITC-Annexing V (Invitrogen, Carlsbad, Calif.), APC anti-mouse CD11b and PE anti-mouse Gr-1 (eBiosciences, San Diego, Calif.).
Mouse bone marrow cells were isolated as described previously (22). The isolated bone marrow cells were re-suspended to a concentration of 1×10^8 cells/ml using RPMI 1640 medium supplemented with 10% FBS. A Gr1-PE conjugated antibody (3 μg/ml), following a mouse FcR blocking specific antibody (5 μl/ml), was added, mixed thoroughly and incubated at 4° C. for 15 min. After centrifugation at 1500 rpm for 5 min, cells were re-suspended in fresh medium to a concentration of 1×10^8 cells/ml. EasySep® PE selection cocktail (25 μl/ml, StemCell Technologies, Vancouver, British Columbia) was added to the cells and incubated at 4° C. for 15 min. […]

Structure (SMILES): COc1cc(/C=C/C(=O)CC(=O)/C=C/c2ccc(O)c(OC)c2)ccc1O [curcumin]
- EAE disease severity score [1]: 3.60±0.12
- sera level of IL-6 [2]: similar
- sera level of TNF-α [2]: similar
- curcumin remaining after incubation compared to the 0 min sample [3]: 25%
- Gr1+ cell apoptosis [4]: induces Gr1^+ cell apoptosis
